Experimental data: PubChem BioAssay (NCI)
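Each compound was tested at five concentrations against cells in 96-well plates for 48 hours. GI50 is the concentration that inhibits growth by half. TGI marks complete inhibition of growth.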

Columns and labels:
Assay in all cases: inhibition of tumour cell growth, NCI panel, 48 h
NCI-H460 lung = test system: NCI-H460 lung
NCI-H23 lung = test system: NCI-H23 lung
MDA-MB-231 breast = test system: MDA-MB-231 breast
K-562 leukemia = test system: K-562 leukemia
SK-MEL-28 melanoma = test system: SK-MEL-28 melanoma
RPMI-8226 leukemia = test system: RPMI-8226 leukemia
SR leukemia = test system: SR leukemia
NCI-H226 lung = test system: NCI-H226 lung
HCT-15 colon = test system: HCT-15 colon
T-47D breast = test system: T-47D breast

| SMILES | TGI (NCI-H460 lung) | TGI (NCI-H23 lung) | TGI (MDA-MB-231 breast) | TGI (K-562 leukemia) | TGI (SK-MEL-28 melanoma) | TGI (RPMI-8226 leukemia) | TGI (SR leukemia) | TGI (NCI-H226 lung) | TGI (HCT-15 colon) | TGI (T-47D breast) | GI50 (NCI-H460 lung) | GI50 (MDA-MB-231 breast) | GI50 (K-562 leukemia) | GI50 (SK-MEL-28 melanoma) | GI50 (RPMI-8226 leukemia) | GI50 (SR leukemia) | GI50 (NCI-H226 lung) | GI50 (HCT-15 colon) | GI50 (T-47D breast) | GI50 (NCI-H23 lung) |
| --- | --- | --- | --- | --- | --- | --- | --- | --- | --- | --- | --- | --- | --- | --- | --- | --- | --- | --- | --- | --- |
| c1cncc(-c2cc(-c3cc(-c4cccnc4)n[nH]3)[nH]n2)c1 | > 100 µM | > 100 µM | > 100 µM | > 100 µM | > 100 µM | > 100 µM | > 100 µM | > 100 µM | > 100 µM | > 100 µM | – | – | – | – | – | – | – | – | – | – |
| COc1cc(/C=C/C(=O)CC(=O)/C=C/c2ccc(OC(=O)CCNC34CC5CC(CC(C5)C3)C4)c(OC)c2)ccc1OC(=O)CCNC12CC3CC(CC(C3)C1)C2 | 6.33 µM | – | 25.3 µM | > 100 µM | 17.2 µM | 6.01 µM | 8.84 µM | 30.5 µM | 17.6 µM | 59.8 µM | 2.5 µM | 3.97 µM | 4.41 µM | 3.79 µM | 2.1 µM | 2.37 µM | 11.8 µM | 4.49 µM | 5.89 µM | – |
| CCC(=O)Nc1ccc2c(c1)CN1C(=O)c3ccccc3C1=N2 | > 100 µM | > 100 µM | > 100 µM | – | > 100 µM | > 100 µM | > 100 µM | > 100 µM | > 100 µM | > 100 µM | > 100 µM | > 100 µM | – | > 100 µM | > 100 µM | > 100 µM | > 100 µM | > 100 µM | > 100 µM | > 100 µM |
| Cc1cc(Nc2nc(N3CCOCC3)nc3ccccc23)n[nH]1 | > 100 µM | – | > 100 µM | > 100 µM | > 100 µM | > 100 µM | 28.1 µM | 45.2 µM | > 100 µM | > 100 µM | 4.45 µM | 15 µM | 5.14 µM | 20.4 µM | 22.5 µM | 3.65 µM | 4.13 µM | 3.54 µM | 9.63 µM | – |
| CC1=C([Se]CC(OC(=O)[C@@H](CSSC(C)(C)C)NC(=O)C(C)(C)C)C(=O)NCCCCCC(=O)OCc2ccccc2)C(=O)c2ccccc2C1=O (some centres not stated) | 2.52 µM | 7.1 µM | 4.23 µM | – | 3.53 µM | 6.74 µM | 18.5 µM | 4.63 µM | 12.9 µM | 6.39 µM | 0.637 µM | 1.92 µM | – | 1.92 µM | 2.33 µM | 3.84 µM | 2.36 µM | 3.2 µM | 2.19 µM | 2.4 µM |
| COc1ccc2c(c1)/C(=C/c1c(-c3ccc(C)cc3)nc3sc(C)cn13)C(=O)N2 | 56.2 µM | 32.5 µM | > 100 µM | > 100 µM | > 100 µM | – | 28.7 µM | 95.9 µM | – | > 100 µM | 6.36 µM | 13.3 µM | 4.95 µM | 23.4 µM | – | 1.59 µM | 20.1 µM | – | 5.5 µM | 6.86 µM |
| O=C(CCc1ccc(O)c(O)c1)c1ccc(O)c(O)c1O | 36.2 µM | 61.3 µM | 55.5 µM | 66 µM | > 100 µM | – | > 100 µM | 36.2 µM | 33 µM | 66.3 µM | – | – | – | – | – | – | – | – | – | – |
